Measurements from patent US4017606A, “Organic compounds and process” (The Upjohn Company, priority 1975, dated 1977).
One block for each molecule: values may come before it.

What was measured:
liver deaminase = experiment: Deamination of cytosine arabinoside in rhesus monkey blood by liver deaminase; format: biochemical; settings: one part of tetrahydrouridine to 820 parts of cytosine arabinoside
Source text: (§1) This is especially reflected in a drop in the blood level of cytosine arabinoside, usually concomitant with an increase in uracil arabinoside. This destruction of cytosine arabinoside is brought about by a deaminase enzyme present in the blood and tissues of the animal. […] For example, deamination of cytosine arabinoside in rhesus monkey blood by liver deaminase was inhibited about 90% by the addition of one part of 4-hydroxyl-1-β-D-ribofuranosyl-tetrahydro-2(1H)-pyrimidinone (tetrahydrouridine) to 820 parts of cytosine arabinoside.

[1] = Serum half life of cytosine arabinoside in beagle dogs with or without tetrahydrouridine; settings: dog, in vivo
Source text: as §1

[2] = molecular target: deaminase enzymes (centrifuged 25 percent homogenate of normal human liver) (Homo sapiens, UniProt P32320); experiment: Competitive efficacy (C.E.) test: inhibition of cytosine arabinoside deamination; settings: 1.0 micromole tritiated Ca, pH 8.0, 37° C., 45 minutes
Protocol: The inhibition of cytosine arabinoside deamination by a compound is conveniently expressed in terms of its competitive efficacy (C.E.). The competitive efficacy of a compound is determined as follows:
Enzyme reaction mixture are prepared in 12-ml. centrifuge tubes in an ice bath. […] This is the standard reaction mixture. […] The tubes are then assayed for radioactive uracil arabinoside as described below, and the percent conversion of tritiated Ca to tritiated uracil arabinosie is calculated. A standard curve of the percent conversion vs. log10 of the initial ratio of untritiated Ca to tritiated Ca is plotted. This is the standard curve for the C.E. test.
Reaction mixture for C.E. test.
To determine the C.E. of a compound, known amounts of the compound are added to the above standard reaction mixture and the percent conversion of tritiated Ca to tritiated uracil arabinoside is measured. […] From this ratio and the amount of test compound in the assay reaction mixture, the C.E. is calculated. […]
After 45 minute incubation of the enzyme reaction mixtures, further reaction is stopped by the addition of one-half volume of iced, 15 percent trichloroacetic acid. […] Suitable quantities (4 microliters) of clear supernatant solution are co-chromatographed with a mixture of 40 millimicromoles each of non-tritiated carrier Ca and uracil arabinoside on Whatman No. 40 paper. […]

myelogenous leukemia = settings: adults; 1 to 5 mg./kg. weekly intravenously or subcutaneously as maintenance; cited from earlier work

deaminase enzymes (centrifuged 25 percent homogenate of normal human liver), sequence (P32320 whole entry): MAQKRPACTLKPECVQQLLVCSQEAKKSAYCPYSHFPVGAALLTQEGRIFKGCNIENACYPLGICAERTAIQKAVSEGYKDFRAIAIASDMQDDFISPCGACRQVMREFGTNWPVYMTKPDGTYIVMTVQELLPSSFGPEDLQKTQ

inhibition of deamination of cytosine arabinoside (liver deaminase): about 90%
half life of cytosine arabinoside in the serum ([1]; iv): 2.27 to 3 h
Compound: O=C1NC(O)CCN1[C@@H]1O[C@H](CO)[C@@H](O)[C@H]1O (single isomer, unassigned) [tetrahydrouridine, 4-hydroxy-1-β-D-ribofuranosyl-tetrahydro-2(1H)-pyrimidinone]

Competitive Efficacy [2]: 200
Compound: O=C1NCCCN1[C@@H]1O[C@H](CO)[C@@H](O)[C@H]1O [E]

Compound: Nc1ccn([C@@H]2O[C@H](CO)[C@@H](O)[C@@H]2O)c(=O)n1 [cytosine arabinoside, 1-β-D-arabinofuranosylcytosine, reference compound]
duration of remission of myelogenous leukemia (bone marrow response) (myelogenous leukemia): more than 203 days
half-life ([1]; control dogs without tetrahydrouridine, 50 mg./kg. cytosine arabinoside intravenous): 1.1 to 1.33 h
